Assay results reported in ChEMBL document CHEMBL3885861, “Open TG-GATES”.

Species: Rattus norvegicus
Test: Open TG-GATES - Regimen: Daily Repeat
Assay type: toxicity, organism-based, Sprague-Dawley
Parameters: regimen Daily Repeat, gender Male, age 6 weeks
Details: in vivo, po, 100 mg/kg, route gavage, dose level Middle; for APTT / Bas / Eos / Fbg / Hb / Ht / Lym / MCH / MCHC / MCV / Mono / Neu / PT / Plat / RBC / Ret / WBC: tissue Blood; for KIDNEY_L / KIDNEY_R / KIDNEY_TOTAL: tissue Kidney; for LIVER: tissue Liver; for A/G / ALP / ALT / AST / BUN / CRE / Ca / Cl / DBIL / GLC / IP / K / LDH / Na / PL / RALB / TBIL / TC / TG / TP / gamma-GTP: tissue Plasma

CCOC(=O)C(C)(C)Oc1ccc(Cl)cc1 [CLOFIBRATE] was tested, and the TERMINAL_BW (72 h, time 3 day) was 242.5 g, the APTT (72 h, time 3 day) was 18.9 s and the Bas (72 h, time 3 day) was 0%. The Eos (72 h, time 3 day) was 1%, the Fbg (72 h, time 3 day) was 210.8 mg/dL and the Hb (72 h, time 3 day) was 13.4 g/dL. The Ht (72 h, time 3 day) was 38.4%, the Lym (72 h, time 3 day) was 80.2% and the MCH (72 h, time 3 day) was 21.6 pg. For the same compound, the MCHC (72 h, time 3 day) was 35%, the MCV (72 h, time 3 day) was 61.8 fL and the Mono (72 h, time 3 day) was 2.6%. For the same compound, the Neu (72 h, time 3 day) was 15.6%, the PT (72 h, time 3 day) was 12.4 s and the Plat (72 h, time 3 day) was 131.7 x10_4/uL. The RBC (72 h, time 3 day) was 621.6 x10_4/ul, the Ret (72 h, time 3 day) was 4.9% and the WBC (72 h, time 3 day) was 117.6 x10_2/uL. The KIDNEY_L (72 h, time 3 day) was 1.1 g, the KIDNEY_R (72 h, time 3 day) was 1.1 g and the KIDNEY_TOTAL (72 h, time 3 day) was 2.2 g. For the same compound, the LIVER (72 h, time 3 day) was 12.5 g, the A/G (72 h, time 3 day) was 1.7 and the ALP (72 h, time 3 day) was 1054.4 IU/L. It also gave an ALT (72 h, time 3 day) of 38.2 IU/L, an AST (72 h, time 3 day) of 70.2 IU/L and a BUN (72 h, time 3 day) of 16 mg/dL. For the same compound, the CRE (72 h, time 3 day) was 0.4 mg/dL, the Ca (72 h, time 3 day) was 10.8 mg/dL and the Cl (72 h, time 3 day) was 102.6 meq/L. For the same compound, the DBIL (72 h, time 3 day) was 0.076 mg/dL, the GLC (72 h, time 3 day) was 198.4 mg/dL and the IP (72 h, time 3 day) was 6.3 mg/dL. The K (72 h, time 3 day) was 4 meq/L, the LDH (72 h, time 3 day) was 215 IU/L and the Na (72 h, time 3 day) was 141 meq/L. It also gave a PL (72 h, time 3 day) of 120 mg/dL, an RALB (72 h, time 3 day) of 3.4 g/dL and a TBIL (72 h, time 3 day) of 0.1 mg/dL. For the same compound, the TC (72 h, time 3 day) was 55.6 mg/dL, the TG (72 h, time 3 day) was 82.4 mg/dL and the TP (72 h, time 3 day) was 5.4 g/dL. For the same compound, the gamma-GTP (72 h, time 3 day) was 0.6 IU/L, the TERMINAL_BW ([…], time 7 day) was 270.9 g and the TERMINAL_BW ([…], time 14 day) was 321.6 g. The TERMINAL_BW ([…], time 28 day) was 398.1 g, the APTT ([…], time 7 day) was 22.7 s and the Bas ([…], time 7 day) was 0%. The Eos ([…], time 7 day) was 1%, the Fbg ([…], time 7 day) was 200.6 mg/dL and the Hb ([…], time 7 day) was 14 g/dL. It also gave a Ht ([…], time 7 day) of 40%, a Lym ([…], time 7 day) of 79.2% and an MCH ([…], time 7 day) of 21.2 pg. The MCHC ([…], time 7 day) was 35.1%, the MCV ([…], time 7 day) was 60.5 fL and the Mono ([…], time 7 day) was 3%. For the same compound, the Neu ([…], time 7 day) was 16.6%, the PT ([…], time 7 day) was 12.4 s and the Plat ([…], time 7 day) was 132.4 x10_4/uL. For the same compound, the RBC ([…], time 7 day) was 660.6 x10_4/ul, the Ret ([…], time 7 day) was 4.9% and the WBC ([…], time 7 day) was 99.6 x10_2/uL. The APTT ([…], time 14 day) was 20.3 s, the Bas ([…], time 14 day) was 0% and the Eos ([…], time 14 day) was 1%. The Fbg ([…], time 14 day) was 204.2 mg/dL, the Hb ([…], time 14 day) was 13.6 g/dL and the Ht ([…], time 14 day) was 39.5%. For the same compound, the Lym ([…], time 14 day) was 81.8%, the MCH ([…], time 14 day) was 20 pg and the MCHC ([…], time 14 day) was 34.3%. It also gave an MCV ([…], time 14 day) of 58.2 fL, a Mono ([…], time 14 day) of 2.6% and a Neu ([…], time 14 day) of 14.2%. It also gave a PT ([…], time 14 day) of 12.7 s, a Plat ([…], time 14 day) of 130.4 x10_4/uL and an RBC ([…], time 14 day) of 679 x10_4/ul. For the same compound, the Ret ([…], time 14 day) was 4.2%, the WBC ([…], time 14 day) was 153.1 x10_2/uL and the APTT ([…], time 28 day) was 21.7 s. For the same compound, the Bas ([…], time 28 day) was 0%, the Eos ([…], time 28 day) was 1.2% and the Fbg ([…], time 28 day) was 211.2 mg/dL. For the same compound, the Hb ([…], time 28 day) was 14.7 g/dL, the Ht ([…], time 28 day) was 41.8% and the Lym ([…], time 28 day) was 83.8%. For the same compound, the MCH ([…], time 28 day) was 19.1 pg, the MCHC ([…], time 28 day) was 35.1% and the MCV ([…], time 28 day) was 54.3 fL. The Mono ([…], time 28 day) was 2%, the Neu ([…], time 28 day) was 12.8% and the PT ([…], time 28 day) was 12.1 s. For the same compound, the Plat ([…], time 28 day) was 110.4 x10_4/uL, the RBC ([…], time 28 day) was 769.4 x10_4/ul and the Ret ([…], time 28 day) was 2.1%. The WBC ([…], time 28 day) was 141.2 x10_2/uL, the KIDNEY_L ([…], time 7 day) was 1.1 g and the KIDNEY_R ([…], time 7 day) was 1.2 g. It also gave a KIDNEY_TOTAL ([…], time 7 day) of 2.3 g, a KIDNEY_L ([…], time 14 day) of 1.3 g and a KIDNEY_R ([…], time 14 day) of 1.3 g. The KIDNEY_TOTAL ([…], time 14 day) was 2.6 g, the KIDNEY_L ([…], time 28 day) was 1.5 g and the KIDNEY_R ([…], time 28 day) was 1.5 g. For the same compound, the KIDNEY_TOTAL ([…], time 28 day) was 3 g, the LIVER ([…], time 7 day) was 14.5 g and the LIVER ([…], time 14 day) was 17 g. The LIVER ([…], time 28 day) was 20.1 g, the A/G ([…], time 7 day) was 1.9 and the ALP ([…], time 7 day) was 856.8 IU/L. The ALT ([…], time 7 day) was 32.8 IU/L, the AST ([…], time 7 day) was 61 IU/L and the BUN ([…], time 7 day) was 16.8 mg/dL. For the same compound, the CRE ([…], time 7 day) was 0.4 mg/dL, the Ca ([…], time 7 day) was 10.4 mg/dL and the Cl ([…], time 7 day) was 102.8 meq/L. The DBIL ([…], time 7 day) was 0.07 mg/dL, the GLC ([…], time 7 day) was 211.2 mg/dL and the IP ([…], time 7 day) was 7.3 mg/dL. It also gave a K ([…], time 7 day) of 3.5 meq/L, an LDH ([…], time 7 day) of 207.2 IU/L and a Na ([…], time 7 day) of 141 meq/L. For the same compound, the PL ([…], time 7 day) was 108.8 mg/dL, the RALB ([…], time 7 day) was 3.7 g/dL and the TBIL ([…], time 7 day) was 0.1 mg/dL. The TC ([…], time 7 day) was 49.8 mg/dL, the TG ([…], time 7 day) was 53.4 mg/dL and the TP ([…], time 7 day) was 5.6 g/dL. For the same compound, the gamma-GTP ([…], time 7 day) was 1 IU/L, the A/G ([…], time 14 day) was 1.7 and the ALP ([…], time 14 day) was 933 IU/L. The ALT ([…], time 14 day) was 38.4 IU/L, the AST ([…], time 14 day) was 63.4 IU/L and the BUN ([…], time 14 day) was 16.4 mg/dL. The CRE ([…], time 14 day) was 0.4 mg/dL, the Ca ([…], time 14 day) was 10.2 mg/dL and the Cl ([…], time 14 day) was 101.8 meq/L. It also gave a DBIL ([…], time 14 day) of 0.06 mg/dL, a GLC ([…], time 14 day) of 223.8 mg/dL and an IP ([…], time 14 day) of 6.1 mg/dL. The K ([…], time 14 day) was 3.8 meq/L, the LDH ([…], time 14 day) was 183.8 IU/L and the Na ([…], time 14 day) was 140.4 meq/L. It also gave a PL ([…], time 14 day) of 120.2 mg/dL, an RALB ([…], time 14 day) of 3.5 g/dL and a TBIL ([…], time 14 day) of 0.1 mg/dL. For the same compound, the TC ([…], time 14 day) was 55 mg/dL, the TG ([…], time 14 day) was 63.4 mg/dL and the TP ([…], time 14 day) was 5.6 g/dL. It also gave a gamma-GTP ([…], time 14 day) of 1 IU/L, an A/G ([…], time 28 day) of 1.7 and an ALP ([…], time 28 day) of 726.6 IU/L. The ALT ([…], time 28 day) was 38.2 IU/L, the AST ([…], time 28 day) was 71 IU/L and the BUN ([…], time 28 day) was 15.8 mg/dL. It also gave a CRE ([…], time 28 day) of 0.4 mg/dL, a Ca ([…], time 28 day) of 10.5 mg/dL and a Cl ([…], time 28 day) of 102.4 meq/L. For the same compound, the DBIL ([…], time 28 day) was 0.08 mg/dL, the GLC ([…], time 28 day) was 208.6 mg/dL and the IP ([…], time 28 day) was 6.1 mg/dL. The K ([…], time 28 day) was 3.6 meq/L, the LDH ([…], time 28 day) was 236.8 IU/L and the Na ([…], time 28 day) was 141 meq/L. The PL ([…], time 28 day) was 132 mg/dL, the RALB ([…], time 28 day) was 3.8 g/dL and the TBIL ([…], time 28 day) was 0.1 mg/dL. It also gave a TC ([…], time 28 day) of 54.8 mg/dL, a TG ([…], time 28 day) of 106.2 mg/dL and a TP ([…], time 28 day) of 6 g/dL. The gamma-GTP ([…], time 28 day) was 1 IU/L.
